# Results published in ChEMBL document CHEMBL1201862, “PubChem BioAssay data set” (2004).
# Calls of active or inactive are those of the source.
# Key:
# [1] = target: T1, Ubiquitin-conjugating enzyme E2 N (Homo sapiens, UniProt P61088); format: functional
# T1 sequence (P61088 whole entry): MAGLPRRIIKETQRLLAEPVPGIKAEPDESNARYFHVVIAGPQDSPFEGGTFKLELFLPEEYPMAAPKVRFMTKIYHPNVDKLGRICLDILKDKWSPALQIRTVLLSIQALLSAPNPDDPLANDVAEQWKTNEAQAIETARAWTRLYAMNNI
# [2] = target: T2, Heat shock factor protein 1 (Mus musculus, UniProt P38532); assay: inhibition of MG132-induced HSE-luciferase signal, confirmation, cell-based, NIH3T3, luminescence, dose retest (AID 2382); format: functional;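 also: NIH3T3 fibroblasts with HSF1-driven luciferase reporter stressed by proteasome inhibitor MG132; luminescence from HSF1-driven luciferase expression after 8 hours of MG132 stress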
# T2 sequence (P38532 whole entry): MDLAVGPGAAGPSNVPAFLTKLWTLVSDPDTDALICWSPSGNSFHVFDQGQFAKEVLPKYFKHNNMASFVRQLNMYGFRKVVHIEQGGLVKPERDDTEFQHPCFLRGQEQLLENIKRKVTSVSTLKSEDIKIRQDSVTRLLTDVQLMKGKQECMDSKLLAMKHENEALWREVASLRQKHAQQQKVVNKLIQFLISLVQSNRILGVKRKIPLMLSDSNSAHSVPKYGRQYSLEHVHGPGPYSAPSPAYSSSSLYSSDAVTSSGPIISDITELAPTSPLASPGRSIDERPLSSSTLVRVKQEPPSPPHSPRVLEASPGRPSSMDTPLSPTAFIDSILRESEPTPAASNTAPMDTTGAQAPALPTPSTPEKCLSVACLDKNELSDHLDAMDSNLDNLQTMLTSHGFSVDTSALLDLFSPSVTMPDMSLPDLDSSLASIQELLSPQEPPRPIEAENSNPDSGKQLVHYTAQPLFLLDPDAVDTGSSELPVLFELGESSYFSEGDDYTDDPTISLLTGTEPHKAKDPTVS
# Bcl-2-related protein A1 = target: T3, Bcl-2-related protein A1 (Mus musculus, UniProt Q07440); format: functional;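 also: confirmatory dose–response counterscreen on Bfl-1, used to check hits from a UBC13 polyubiquitin inhibitor campaign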
# T3 sequence (Q07440 whole entry): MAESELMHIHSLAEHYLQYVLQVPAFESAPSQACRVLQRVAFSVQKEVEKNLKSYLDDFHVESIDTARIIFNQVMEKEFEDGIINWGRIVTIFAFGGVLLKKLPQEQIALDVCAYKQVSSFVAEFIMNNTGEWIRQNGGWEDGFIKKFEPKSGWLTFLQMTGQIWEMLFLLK
# [3] = target: T1, Ubiquitin-conjugating enzyme E2 N; format: functional; remark: listed apart in the source
# HEK293 [4] = assay: cells; format: functional, cell-based; settings: Homo sapiens
# HEK293 [5] = assay: cells; format: functional, cell-based; settings: Homo sapiens; remark: listed apart in the source
# HEK293 [6] = assay: NOD2 signaling inhibitors in MDP-stimulated cells, cell-based, uHTS, luminescence (AID 2001); format: functional; settings: Homo sapiens
# HEK293 [7] = assay: cells; format: functional, cell-based; settings: Homo sapiens; remark: listed apart in the source
# [8] = target: Nucleotide-binding oligomerization domain-containing protein 2 (Homo sapiens, UniProt Q9HC29); assay: NOD2 signaling inhibitors, cell-based, luminescence, uHTS, HEK293 (AID 1566); format: functional
# Chain of Nucleotide-binding oligomerization domain-containing protein 2 (Q9HC29 whole entry, the tested form may be a part): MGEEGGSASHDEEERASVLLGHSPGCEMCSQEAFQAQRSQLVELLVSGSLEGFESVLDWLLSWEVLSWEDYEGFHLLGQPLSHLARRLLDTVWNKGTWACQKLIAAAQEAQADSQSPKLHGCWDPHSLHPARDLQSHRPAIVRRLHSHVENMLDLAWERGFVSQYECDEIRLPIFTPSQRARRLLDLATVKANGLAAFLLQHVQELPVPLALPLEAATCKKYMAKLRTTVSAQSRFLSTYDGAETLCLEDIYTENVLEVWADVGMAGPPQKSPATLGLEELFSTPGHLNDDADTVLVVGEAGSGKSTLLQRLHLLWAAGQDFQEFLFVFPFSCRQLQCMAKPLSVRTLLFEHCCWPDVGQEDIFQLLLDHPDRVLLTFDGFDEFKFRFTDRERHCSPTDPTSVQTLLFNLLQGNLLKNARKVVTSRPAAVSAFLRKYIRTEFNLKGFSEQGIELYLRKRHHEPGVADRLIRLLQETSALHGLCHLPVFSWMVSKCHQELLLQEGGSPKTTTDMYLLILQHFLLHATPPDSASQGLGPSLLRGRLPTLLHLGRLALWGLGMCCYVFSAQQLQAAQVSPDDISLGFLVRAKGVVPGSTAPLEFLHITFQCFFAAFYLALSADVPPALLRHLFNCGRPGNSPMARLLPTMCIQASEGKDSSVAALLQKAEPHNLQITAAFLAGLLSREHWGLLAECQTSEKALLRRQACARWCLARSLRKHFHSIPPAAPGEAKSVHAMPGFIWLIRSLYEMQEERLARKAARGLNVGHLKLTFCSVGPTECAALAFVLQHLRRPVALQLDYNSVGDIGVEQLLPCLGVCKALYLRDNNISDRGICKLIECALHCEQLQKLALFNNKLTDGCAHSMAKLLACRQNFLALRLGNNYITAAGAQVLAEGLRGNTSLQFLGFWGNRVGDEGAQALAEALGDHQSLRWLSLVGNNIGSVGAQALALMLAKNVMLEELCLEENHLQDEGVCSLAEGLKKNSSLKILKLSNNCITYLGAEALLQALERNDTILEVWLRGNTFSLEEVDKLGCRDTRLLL
# HEK293 [9] = assay: NOD1 signaling inhibitors, primary screen, cell-based, luminescence, uHTS (AID 1578); format: functional; settings: Homo sapiens
# [10] = target: T4, Calpain-2 catalytic subunit (Sus scrofa, UniProt P43367); assay: pig calpain II inhibitor potency, dose response, biochemical, fluorogenic peptide substrate (AID 1420); format: functional
# T4 sequence (P43367 whole entry): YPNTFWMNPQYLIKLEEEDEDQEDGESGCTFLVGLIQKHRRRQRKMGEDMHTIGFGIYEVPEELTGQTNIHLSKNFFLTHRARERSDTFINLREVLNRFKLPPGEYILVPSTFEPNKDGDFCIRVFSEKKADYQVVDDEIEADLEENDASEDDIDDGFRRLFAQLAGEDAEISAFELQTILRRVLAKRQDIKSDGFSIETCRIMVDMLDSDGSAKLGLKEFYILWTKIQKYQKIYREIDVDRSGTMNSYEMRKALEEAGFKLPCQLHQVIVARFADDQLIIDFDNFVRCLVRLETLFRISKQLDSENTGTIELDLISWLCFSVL
# [11] = target: T5, Alkaline phosphatase, tissue-nonspecific isozyme (Homo sapiens, UniProt P05186); assay: TNAP enzyme inhibition by screening hits, dose response, selectivity assay for mouse IAP inhibitor project, biochemical, human TNAP, uHTS hits (AID 488906); format: functional
# T5 sequence (P05186 whole entry): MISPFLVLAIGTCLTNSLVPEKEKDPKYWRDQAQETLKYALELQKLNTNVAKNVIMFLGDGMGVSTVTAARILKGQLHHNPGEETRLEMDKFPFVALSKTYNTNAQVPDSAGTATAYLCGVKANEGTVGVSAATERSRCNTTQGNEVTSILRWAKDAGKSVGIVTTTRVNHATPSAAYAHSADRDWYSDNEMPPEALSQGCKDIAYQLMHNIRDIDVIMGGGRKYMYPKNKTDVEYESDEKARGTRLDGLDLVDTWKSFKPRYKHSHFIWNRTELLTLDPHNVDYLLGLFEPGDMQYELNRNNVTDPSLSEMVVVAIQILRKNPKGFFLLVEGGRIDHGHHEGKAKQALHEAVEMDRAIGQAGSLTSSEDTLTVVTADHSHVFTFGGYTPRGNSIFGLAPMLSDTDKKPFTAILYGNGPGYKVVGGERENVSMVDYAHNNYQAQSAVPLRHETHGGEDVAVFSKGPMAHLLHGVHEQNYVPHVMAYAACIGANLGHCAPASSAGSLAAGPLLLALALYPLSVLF
# [12] = target: Intestinal-type alkaline phosphatase (Homo sapiens, UniProt P09923); assay: inhibition of human intestinal alkaline phosphatase – biochemical, dose response (AID 488876); format: functional
# Chain of Intestinal-type alkaline phosphatase (Homo sapiens, UniProt P09923) (P09923 whole entry): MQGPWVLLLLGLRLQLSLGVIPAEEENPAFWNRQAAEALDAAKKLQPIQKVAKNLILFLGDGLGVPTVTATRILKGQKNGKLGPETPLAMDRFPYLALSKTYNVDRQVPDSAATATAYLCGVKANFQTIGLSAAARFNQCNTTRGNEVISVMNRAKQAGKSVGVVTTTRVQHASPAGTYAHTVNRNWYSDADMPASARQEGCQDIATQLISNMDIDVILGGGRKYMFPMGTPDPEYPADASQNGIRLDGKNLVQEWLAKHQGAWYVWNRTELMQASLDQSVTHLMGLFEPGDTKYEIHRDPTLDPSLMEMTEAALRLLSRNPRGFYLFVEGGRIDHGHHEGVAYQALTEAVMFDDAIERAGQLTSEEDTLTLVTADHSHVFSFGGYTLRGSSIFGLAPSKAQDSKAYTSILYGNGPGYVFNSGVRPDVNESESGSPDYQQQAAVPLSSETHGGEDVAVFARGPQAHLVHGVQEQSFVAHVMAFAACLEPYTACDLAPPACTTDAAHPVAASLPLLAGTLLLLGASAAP
# [13] = target: Intestinal-type alkaline phosphatase (Mus musculus, UniProt P24822); assay: PubChem AID 488785; format: functional
# Chain of Intestinal-type alkaline phosphatase (Mus musculus, UniProt P24822) (P24822 whole entry): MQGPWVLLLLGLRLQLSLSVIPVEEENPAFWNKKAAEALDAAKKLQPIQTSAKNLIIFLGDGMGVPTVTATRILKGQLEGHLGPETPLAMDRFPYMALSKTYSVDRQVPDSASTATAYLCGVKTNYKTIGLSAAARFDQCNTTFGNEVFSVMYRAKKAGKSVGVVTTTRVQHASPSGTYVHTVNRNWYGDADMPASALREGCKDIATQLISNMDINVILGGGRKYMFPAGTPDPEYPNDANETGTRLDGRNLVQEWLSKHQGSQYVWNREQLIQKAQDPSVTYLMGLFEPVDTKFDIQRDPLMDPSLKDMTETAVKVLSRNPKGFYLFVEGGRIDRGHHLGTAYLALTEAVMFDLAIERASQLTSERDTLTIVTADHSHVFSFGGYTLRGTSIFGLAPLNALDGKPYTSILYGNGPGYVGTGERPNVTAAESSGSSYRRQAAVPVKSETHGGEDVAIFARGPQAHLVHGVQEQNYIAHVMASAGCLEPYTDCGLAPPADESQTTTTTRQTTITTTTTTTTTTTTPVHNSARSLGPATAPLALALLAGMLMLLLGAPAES
# [14] = THP-1 cell cytotoxicity, dose response, cytotoxicity control for non-replicating M. tuberculosis project (AID 489025); format: functional
# cells = format: functional
# [15] = Vero E6 cell cytotoxicity, dose response, cytotoxicity control for non-replicating M. tuberculosis project, secondary assay (AID 492998); format: functional, VeroE6; settings: Vero C1008
# [16] = target: T6, Microphthalmia-associated transcription factor (Homo sapiens, UniProt O75030); assay: TRPM1 promoter luciferase signal decrease, dose response, MITF inhibitor project, cell-based, SK-MEL-5, cherry-picked, set 3 (AID 493073); format: functional
# T6 sequence (O75030 whole entry): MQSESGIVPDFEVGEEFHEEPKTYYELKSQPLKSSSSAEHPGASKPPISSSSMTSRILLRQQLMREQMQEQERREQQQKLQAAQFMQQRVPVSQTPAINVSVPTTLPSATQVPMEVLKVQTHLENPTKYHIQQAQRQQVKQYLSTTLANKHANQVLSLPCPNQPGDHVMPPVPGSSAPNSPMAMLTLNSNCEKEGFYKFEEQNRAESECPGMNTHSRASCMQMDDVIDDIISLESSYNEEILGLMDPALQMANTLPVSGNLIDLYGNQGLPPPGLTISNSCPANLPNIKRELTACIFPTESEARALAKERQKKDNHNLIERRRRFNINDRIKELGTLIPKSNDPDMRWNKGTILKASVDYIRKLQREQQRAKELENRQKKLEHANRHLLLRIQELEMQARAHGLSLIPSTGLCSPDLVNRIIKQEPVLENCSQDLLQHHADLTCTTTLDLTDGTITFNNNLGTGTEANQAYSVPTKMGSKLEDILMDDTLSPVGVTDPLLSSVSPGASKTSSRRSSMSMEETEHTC
# [17] = HepG2 cell cytotoxicity, dose response, cytotoxicity control for non-replicating M. tuberculosis project (AID 489018); format: functional; settings: Mycobacterium tuberculosis
compound,measurement,setting,value
Oc1[nH]c2ccccc2c1N=NC(S)=NCC1CCCO1 (stereo not given),IC50,[1],0.967 µM (active)
same,EC50,[2],> 195 µM (not active)
same,IC50,Bcl-2-related protein A1,> 20 µM (inactive)
same,IC50,[3],1.73 µM (active)
O=C(CCl)Nc1ccccc1Sc1ccc(Cl)cc1,IC50,HEK293 [4],> 20 µM (inactive)
same,IC50,HEK293 [5],> 20 µM (inactive)
same,IC50,HEK293 [6],9.91 µM (active)
same,IC50,HEK293 [7],4.56 µM (active)
same,EC50,[8],6.69 µM (active)
same,EC50,HEK293 [9],7.79 µM (active)
O=C(CCCCCN1C(=O)c2ccccc2C1=O)Nc1ccc(S(=O)(=O)N2CCCCC2)cc1,IC50,[1],1.34 µM (active)
same,IC50,[10],2.38 µM (not active)
same,IC50,Bcl-2-related protein A1,> 20 µM (inactive)
same,IC50,[3],0.982 µM (active)
NS(=O)(=O)c1ccc(NC(=S)NC(=O)/C=C/c2ccco2)cc1,IC50,[11],> 100 µM (inactive)
same,IC50,[12],8.09 µM (active)
same,IC50,[13],1.87 µM (active)
CCOC(=O)c1cc(-c2ccncc2)nc2c1c(C)nn2C,IC50,[1],5.32 µM (active)
same,IC50,Bcl-2-related protein A1,> 20 µM (inactive)
same,IC50,[3],11.3 µM (active)
CN1C/C(=C/c2cccnc2)C(=O)/C(=C/c2cccnc2)C1,CC50,[14],6.26 µM (active)
same,IC50,cells,16.8 µM (active)
same,CC50,[15],> 20 µM (active)
same,AC50,[16],5.31 µM (active)
same,CC50,[17],8.54 µM (active)
